# Assay results published in PMC12536539, “Detumescence Analgesic Plaster mitigates knee osteoarthritis via active ingredients targeting mitochondrial complex 1/AMPK/MYL3-regulated cartilage homeostasis” (Chinese Medicine, 2025).
# Target: T1, NDUFA6
# T1 construct: SPR protein; species is a guess, rat possible
# Experiment: SPR, Biacore 8K, […] Langmuir kinetic fit
# Assay type: binding
smiles,measurement,value
"O=C(/C=C/c1ccc(O)c(O)c1)O[C@@H]1C[C@](OC(=O)/C=C/c2ccc(O)c(O)c2)(C(=O)O)C[C@@H](O)[C@H]1O [1,5-dicaffeoylquinic acid]",Kd,0.735 µM
